Patent US20150105252A1, “SUBSTITUTED PYRAZOLES AS HERBICIDES” (E I DU PONT DE NEMOURS AND COMPANY, priority 2013, published 2015)

Experiments:
[1] = system: Italian ryegrass; assay: Test F preemergence; format: in vivo, Lolium multiflorum
Text: Seeds of plant species selected from corn (Zea mays), soybean (Glycine max), velvetleaf (Abutilon theophrasti), lambsquarters (Chenopodium album), wild poinsettia (Euphorbia heterophylla), pigweed, palmer (palmer pigweed, Amaranthus palmeri), common waterhemp (Amaranthus rudis), surinam grass (Brachiaria decumbens), large crabgrass (Digitaria sanguinalis), crabgrass, Brazil (Brazilian crabgrass, Digitaria horizontalis), fall panicum (Panicum dichotomiflorum), giant foxtail (Setaria faberii), green foxtail (Setaria viridis), goosegrass (Eleusine indica), johnsongrass (Sorghum halepense), common ragweed (Ambrosia elation), barnyardgrass (Echinochloa crus-galli), southern sandbur (Cenchrus echinatus), arrowleaf sida (Sida rhombifolia), Italian ryegrass (Lolium multiflorum), dayflower, VA (Virginia (VA) dayflower, Commelina virginica), field bindweed (Convolvulus arvensis), cocklebur (common cocklebur, Xanthium strumarium), morningglory (Ipomoea coccinea), nightshade (eastern black nightshade, Solanum ptycanthum), kochia (Kochia scoparia), yellow nutsedge (Cyperus esculentus), and hairy beggarticks (Bidens pilosa), were planted into a silt loam soil and treated preemergence with test chemicals formulated in a non-phytotoxic solvent mixture which included a surfactant.
At the same time, plants from these crop and weed species and also horseweed (Canada horseweed, Conyza canadensis), smartweed (ladysthumb smartweed, Polygonum persicaria), waterhemp_RES1, (ALS & Triazine resistant common waterhemp, Amaranthus rudis), and waterhemp_RES2, (ALS & HPPD resistant common waterhemp, Amaranthus rudis) were treated with postemergence applications of test chemicals formulated in the same manner. Plants ranged in height from 2 to 18 cm for postemergence treatments (1- to 4-leaf stage). Treated plants and controls were maintained in a greenhouse for 14 to 21 days, after which time all species were compared to controls and visually evaluated. Plant response ratings, summarized in Table F, are based on a scale of 0 to 100 where 0 is no effect and 100 is complete control. A dash (-) response means no test result.

[2] = system: common ragweed; assay: Test A preemergence; format: in vivo, Ambrosia elation
Outline: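 Both timings tested concurrently in loam/sand soil: preemergence by directed soil spray, postemergence on plants of 2–10 cm at the one- to two-leaf stage. Greenhouse holding period was approximately 10 days before visual injury assessment (0–100, 0 = no effect).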

[3] = Preemergence, 62 g ai/ha, scale 0 to 100
[4] = Preemergence, 125 g ai/ha, scale 0 to 100
[5] = 125 g ai/ha, visual injury, 0 to 100 scale, approx. 10 days
[6] = 500 g ai/ha, visual injury after approx. 10 days, 0 to 100 scale (0 no effect, 100 complete control)

| SMILES | Plant response rating, Italian Ryegrass [1, 3] | Plant response rating, Italian Ryegrass [1, 4] | Common Ragweed plant response rating [2, 5] | Common Ragweed plant response rating [2, 6] | also measured |
| --- | --- | --- | --- | --- | --- |
| CCc1cc(-c2ccc(C(F)(F)F)cc2)nn1Cc1ccnc(C(F)(F)F)c1 [Compound 110] | 20 | 60 |  |  | Plant response rating, Italian Ryegrass ([1]; Preemergence, 31 g ai/ha, scale 0 to 100): 20; Plant response rating, Italian Ryegrass ([1]; preemergence, 8 g ai/ha, scale 0 to 100, 100 is complete control): 0; Plant response rating, Italian Ryegrass ([1]; preemergence, 16 g ai/ha, scale 0 to 100, 100 is complete control): 0 |
| CCc1cc(C(=O)NOC(C)C)nn1Cc1ccnc(OC(F)F)c1 [Compound 126] |  |  | 90 | 100 |  |
| CCc1cc(C(=O)NCC(F)(F)F)nn1Cc1ccnc(Br)c1 [Compound 224] | 20 | 0 |  |  | Plant response rating, Italian Ryegrass ([1]; Preemergence, 250 g ai/ha, scale 0 to 100): 60 |
| CCCc1cc(C(=O)NC2CC2)nn1Cc1ccnc(OC(F)F)c1 [Compound 205] |  |  |  | 100 | Common Ragweed plant response rating (0 to 100 scale) ([2]; 125 g ai/ha, visual injury approx. 10 days after treatment): 70 |
| CCCc1cc(C(=O)NCC(F)(F)F)nn1Cc1ccnc(OC(F)F)c1 [Compound 127] |  |  | 30 | 90 |  |
| CCOc1cc(C(=O)NCC(F)(F)F)nn1Cc1ccnc(OC(F)F)c1 [Compound 128] |  |  | 70 | 90 |  |
